Test results as given in patent US10952436B2, “Microbiocidal quinoline (thio)carboxamide derivatives” (SYNGENTA PARTICIPATIONS AG, priority 2017, dated 2021).

Columns and labels:
[1] = system: Botryotinia fuckeliana (Botrytis cinerea); test: Botryotinia fuckeliana (Botrytis cinerea)/Liquid Culture (Gray Mould); type: cell-based; details: 200 ppm, liquid culture, compared to untreated control, 3-4 days after application, read-out: control of Botryotinia fuckeliana
[2] = system: Fusarium culmorum; test: microbe, parasite or virus in culture; type: cell-based; details: read-out: control of Fusarium culmorum
[3] = system: Glomerella lagenarium (Colletotrichum lagenarium); test: Glomerella lagenarium (Colletotrichum lagenarium)/Liquid Culture (Anthracnose); type: cell-based; details: Colletotrichum orbiculare; 200 ppm; liquid culture, compared to untreated control, 3-4 days after application; read-out: control of Glomerella lagenarium
[4] = system: Monographella nivalis (Microdochium nivale); test: Monographella nivalis (Microdochium nivale)/Liquid Culture (Foot Rot Cereals); type: cell-based; details: 200 ppm, liquid culture, compared to untreated control, 4-5 days after application, read-out: control of Monographella nivalis
[5] = system: Magnaporthe grisea (Pyricularia oryzae); test: microbe, parasite or virus in culture; type: cell-based; details: read-out: control of Magnaporthe grisea
[6] = system: Fusarium culmorum; test: whole plant or invertebrate; type: in vivo; details: in Triticum aestivum, read-out: control of Fusarium culmorum

Row | Compound | melting point [°C] | inhibition of growth at 200 ppm [1] [%] | inhibition of growth at 200 ppm [2] [%] | inhibition of growth at 200 ppm [3] [%] | inhibition of growth at 200 ppm [4] [%] | inhibition of growth at 200 ppm [5] [%] | pest or weed control at 200 ppm [6] [%]
1 | Cc1c(NC(=O)C(Cc2ccccc2)CC2(C)CC2)cnc2c(F)cccc12 (stereo not drawn) | 144 to 146 |  |  |  |  |  | 
2 | C=C(CC(C)(Cc1ccccc1)C(=O)Nc1cnc2c(F)cccc2c1)C(F)(F)F (stereo not drawn) [Compound E-23, 2-benzyl-N-(8-fluoro-3-quinolyl)-2-methyl-4-(trifluoromethyl)pent-4-enamide] |  | ≥ 80 | ≥ 80 | ≥ 80 | ≥ 80 | ≥ 80 | 
3 | CC(Cc1ccccc1)(CC(F)F)C(=O)Nc1cnc2c(F)cccc2c1 (stereo not drawn) [Compound E-55, 2-benzyl-4,4-difluoro-N-(8-fluoro-3-quinolyl)-2-methyl-butanamide] |  | ≥ 80 | ≥ 80 | ≥ 80 | ≥ 80 | ≥ 80 | ≥ 80
4 | Cc1nc2c(F)cccc2cc1NC(=O)C(C)(Cc1ccccc1)CC(C)C (stereo not drawn) [Compound E-86, 2-benzyl-N-(8-fluoro-2-methyl-3-quinolyl)-2,4-dimethyl-pentanamide] |  | ≥ 80 | ≥ 80 | ≥ 80 | ≥ 80 |  | ≥ 80
5 | CC(C=C(F)F)(Cc1ccccc1)C(=O)Nc1cnc2c(F)cccc2c1 (stereo not drawn) [Compound E-57, 2-benzyl-4,4-difluoro-N-(8-fluoro-3-quinolyl)-2-methyl-but-3-enamide] |  | ≥ 80 | ≥ 80 | ≥ 80 | ≥ 80 | ≥ 80 | ≥ 80
6 | CC(C)OC(C)(Cc1ccccc1)C(=O)Nc1cnc2c(F)cccc2c1 (stereo not drawn) [Compound E-40, N-(8-fluoro-3-quinolyl)-2-isopropoxy-2-methyl-3-phenyl-propanamide] |  | ≥ 80 | ≥ 80 | ≥ 80 | ≥ 80 | ≥ 80 | ≥ 80
7 | C#CCC(C)(Cc1ccccc1)C(=O)Nc1cnc2c(F)cccc2c1C (stereo not drawn) [Compound E-3, 2-benzyl-N-(8-fluoro-4-methyl-3-quinolyl)-2-methyl-pent-4-ynamide] |  | ≥ 80 | ≥ 80 | ≥ 80 | ≥ 80 |  | 
8 | CC(C)CC(C)(Cc1cccc(F)c1)C(=O)Nc1cnc2c(F)cccc2c1 (stereo not drawn) [Compound E-7, 2-[(3-fluorophenyl)methyl]-N-(8-fluoro-3-quinolyl)-2,4-dimethyl-pentanamide] |  | ≥ 80 | ≥ 80 | ≥ 80 | ≥ 80 | ≥ 80 | 
9 | Cc1nc2c(F)cccc2cc1NC(=O)C(C)(Cc1ccccc1)OC(C)C (stereo not drawn) [Compound E-39, N-(8-fluoro-2-methyl-3-quinolyl)-2-isopropoxy-2-methyl-3-phenyl-propanamide] |  | ≥ 80 | ≥ 80 | ≥ 80 | ≥ 80 | ≥ 80 | ≥ 80
10 | CON(C(=O)C(C)(Cc1ccccc1)CC(C)C)c1cnc2c(F)cccc2c1 (stereo not drawn) [Compound E-61, 2-benzyl-N-(8-fluoro-3-quinolyl)-N-methoxy-2,4-dimethyl-pentanamide] |  | ≥ 80 | ≥ 80 | ≥ 80 | ≥ 80 | ≥ 80 | 
11 | C/C=C(\C)CC(C)(Cc1ccccc1)C(=O)Nc1cnc2c(F)cccc2c1 (stereo not drawn) [Compound E-32, (E)-2-benzyl-N-(8-fluoro-3-quinolyl)-2,4-dimethyl-hex-4-enamide] |  | ≥ 80 | ≥ 80 | ≥ 80 | ≥ 80 | ≥ 80 | ≥ 80
12 | C[C@@](Cc1ccccc1)(CC(F)(F)F)C(=O)Nc1cnc2c(F)cccc2c1 (single isomer, unassigned) [Compound F-24] |  | ≥ 80 | ≥ 80 | ≥ 80 | ≥ 80 | ≥ 80 | ≥ 80
13 | CC(CCC(F)F)(Cc1ccccc1)C(=O)Nc1cnc2c(F)cccc2c1 (stereo not drawn) [Compound E-34, 2-benzyl-5,5-difluoro-N-(8-fluoro-3-quinolyl)-2-methyl-pentanamide] |  | ≥ 80 | ≥ 80 | ≥ 80 |  | ≥ 80 | 
14 | O=C(Nc1cnc2ccccc2c1)C(Cc1ccccc1)CC(F)(F)F (stereo not drawn) [Compound E-79, 2-benzyl-4,4,4-trifluoro-N-(3-quinolyl)butanamide] |  | ≥ 80 | ≥ 80 | ≥ 80 |  | ≥ 80 | 
15 | C[C@@](Cc1ccccc1)(CC(F)(F)F)C(=O)Nc1cnc2c(F)c(F)ccc2c1 [Compound F-16, (2R)-2-benzyl-N-(7,8-difluoro-3-quinolyl)-4,4,4-trifluoro-2-methyl-butanamide] |  | ≥ 80 | ≥ 80 | ≥ 80 | ≥ 80 | ≥ 80 | 
16 | COC(C)(Cc1ccccc1)C(=O)Nc1cc2cccc(F)c2nc1C (stereo not drawn) [Compound E-41, N-(8-fluoro-2-methyl-3-quinolyl)-2-methoxy-2-methyl-3-phenyl-propanamide] |  | ≥ 80 | ≥ 80 | ≥ 80 | ≥ 80 | ≥ 80 | ≥ 80
17 | CC(C)CC(Cc1ccccc1)C(=O)Nc1cnc2c(F)cccc2c1 (stereo not drawn) [Compound E-35, 2-benzyl-N-(8-fluoro-3-quinolyl)-4-methyl-pentanamide] |  | ≥ 80 | ≥ 80 | ≥ 80 |  | ≥ 80 | ≥ 80
18 | C=C(Cl)CC(Cc1ccccc1)C(=O)Nc1cc2cccc(F)c2nc1C (stereo not drawn) [Compound E-4, 2-benzyl-4-chloro-N-(8-fluoro-2-methyl-3-quinolyl)pent-4-enamide] | 96 to 99 | ≥ 80 | ≥ 80 | ≥ 80 |  |  | 
19 | C=C(C)CC(C)(Cc1ccccc1)C(=O)Nc1cnc2ccccc2c1 (stereo not drawn) [Compound E-64, 2-benzyl-2,4-dimethyl-N-(3-quinolyl)pent-4-enamide] |  | ≥ 80 | ≥ 80 | ≥ 80 | ≥ 80 | ≥ 80 | ≥ 80
20 | C=C(C(Cc1ccccc1)C(=O)Nc1cnc2c(F)cccc2c1)C(F)(F)F (stereo not drawn) [Compound E-24, 2-benzyl-N-(8-fluoro-3-quinolyl)-3-(trifluoromethyl)but-3-enamide] |  | ≥ 80 | ≥ 80 | ≥ 80 | ≥ 80 | ≥ 80 | 
21 | Cc1cccc2cc(NC(=O)[C@@](C)(Cc3ccccc3)CC(F)(F)F)cnc12 [Compound F-17, (2S)-2-benzyl-4,4,4-trifluoro-2-methyl-N-(8-methyl-3-quinolyl)butanamide] |  | ≥ 80 | ≥ 80 | ≥ 80 | ≥ 80 | ≥ 80 | 
22 | C=C(C)CC(C)(Cc1ccccc1)C(=O)Nc1cnc2ccc(OC)cc2c1 (stereo not drawn) [Compound E-62, 2-benzyl-N-(6-methoxy-3-quinolyl)-2,4-dimethyl-pent-4-enamide] |  |  |  |  | ≥ 80 |  | 
23 | CC1(CC(Cc2ccccc2)C(=O)Nc2cnc3c(F)cccc3c2)CC1 (stereo not drawn) | 135 to 136 |  |  |  |  |  | 
24 | CCC(C)CC(C)(Cc1ccccc1)C(=O)Nc1cnc2c(F)cccc2c1 (stereo not drawn) [Compound E-36, 2-benzyl-N-(8-fluoro-3-quinolyl)-2,4-dimethyl-hexanamide] |  | ≥ 80 | ≥ 80 | ≥ 80 | ≥ 80 | ≥ 80 | 
25 | C#CCC(Cc1ccccc1)C(=O)Nc1cnc2c(F)cccc2c1C (stereo not drawn) [Compound E-95] |  | ≥ 80 | ≥ 80 | ≥ 80 | ≥ 80 |  | 
26 | Cc1cccc2cc(NC(=O)[C@](C)(Cc3ccccc3)CC(F)(F)F)cnc12 [Compound F-18, (2R)-2-benzyl-4,4,4-trifluoro-2-methyl-N-(8-methyl-3-quinolyl)butanamide] |  | ≥ 80 | ≥ 80 | ≥ 80 | ≥ 80 | ≥ 80 | 
27 | CC(C)C[C@](C)(Cc1ccccc1)C(=O)Nc1cnc2c(F)cccc2c1 [Compound F-19, (2R)-2-benzyl-N-(8-fluoro-3-quinolyl)-2,4-dimethyl-pentanamide] |  | ≥ 80 | ≥ 80 | ≥ 80 |  |  | ≥ 80
28 | Cc1nc2c(F)cccc2cc1NC(=O)C(Cc1ccccc1)CC1(C)CC1 (stereo not drawn) | 162 to 163 |  |  |  |  |  | 
